The source made the active and inactive calls. The rule behind the calls is not given here.
Legend:
Mus musculus [1] = experiment: Anticonvulsant activity in ip dosed albino mouse model of subcutaneous pentylenetetrazole-induced seizure assessed as failure to observe even a single episode of clonic spasms for at least 5 secs pretreated for 0.5 hrs followed by pentylenetetrazole induction; format: functional
[2] = Neurotoxicity in ip dosed albino mouse assessed as motor impairment measured at 0.5 hrs by rotarod test; format: toxicity, organism-based; conditions: in vivo
Mus musculus [3] = experiment: Anticonvulsant activity in ip dosed albino mouse model of maximal electroshock-induced seizures assessed as prevention of tonic hind limb extension pretreated for 4 hrs followed by 50 mA current-induction for 0.25 secs; format: functional
Mus musculus [4] = experiment: Anticonvulsant activity in ip dosed albino mouse model of subcutaneous pentylenetetrazole-induced seizure assessed as failure to observe even a single episode of clonic spasms for at least 5 secs pretreated for 4 hrs followed by pentylenetetrazole induction; format: functional
Mus musculus [5] = experiment: Anticonvulsant activity in ip dosed albino mouse model of maximal electroshock-induced seizures assessed as prevention of tonic hind limb extension pretreated for 0.5 hrs followed by 50 mA current-induction for 0.25 secs; format: functional
[6] = Neurotoxicity in ip dosed albino mouse assessed as motor impairment measured at 4 hrs by rotarod test; format: toxicity, organism-based; conditions: in vivo
[7] = Hepatotoxicity in albino mouse assessed as decrease in serum alkaline phosphatase level at 30 mg/kg, po administered daily for one month measured post-last dose; format: toxicity, organism-based; conditions: in vivo
Mus musculus [8] = experiment: Anticonvulsant activity in po dosed albino mouse brain assessed as increase in brain GABA level administered for 7 days by TLC analysis; format: functional
[9] = Hepatotoxicity in albino mouse assessed as decrease in serum SGOT level at 30 mg/kg, po administered daily for one month measured post-last dose; format: toxicity, organism-based; conditions: in vivo
[10] = Hepatotoxicity in albino mouse assessed as decrease in serum SGPT level at 30 mg/kg, po administered daily for one month measured post-last dose; format: toxicity, organism-based; conditions: in vivo
[11] = biological target: 4-aminobutyrate aminotransferase, mitochondrial (Mus musculus, UniProt P61922); experiment: Inhibition of GABA aminotransferase in mouse brain homogenates using GABA and alpha-ketoglutarate as substrates preincubated for 30 mins followed by beta-NADP addition and measured for 20 mins by spectrophotometric method; format: tissue-based
[12] = Hepatotoxicity in albino mouse assessed as appearance of normal hepatocyte with clearing of cytoplasm at 30 mg/kg, po administered daily for one month measured post-last dose by histopathological analysis; format: toxicity, organism-based; conditions: in vivo
[13] = Hepatotoxicity in albino mouse assessed as increase in serum SGPT level at 30 mg/kg, po administered daily for one month measured post-last dose; format: toxicity, organism-based; conditions: in vivo
[14] = Hepatotoxicity in albino mouse assessed as increase in serum serum alkaline phosphatase level at 30 mg/kg, po administered daily for one month measured post-last dose; format: toxicity, organism-based; conditions: in vivo

4-aminobutyrate aminotransferase, mitochondrial, sequence (P61922 whole entry): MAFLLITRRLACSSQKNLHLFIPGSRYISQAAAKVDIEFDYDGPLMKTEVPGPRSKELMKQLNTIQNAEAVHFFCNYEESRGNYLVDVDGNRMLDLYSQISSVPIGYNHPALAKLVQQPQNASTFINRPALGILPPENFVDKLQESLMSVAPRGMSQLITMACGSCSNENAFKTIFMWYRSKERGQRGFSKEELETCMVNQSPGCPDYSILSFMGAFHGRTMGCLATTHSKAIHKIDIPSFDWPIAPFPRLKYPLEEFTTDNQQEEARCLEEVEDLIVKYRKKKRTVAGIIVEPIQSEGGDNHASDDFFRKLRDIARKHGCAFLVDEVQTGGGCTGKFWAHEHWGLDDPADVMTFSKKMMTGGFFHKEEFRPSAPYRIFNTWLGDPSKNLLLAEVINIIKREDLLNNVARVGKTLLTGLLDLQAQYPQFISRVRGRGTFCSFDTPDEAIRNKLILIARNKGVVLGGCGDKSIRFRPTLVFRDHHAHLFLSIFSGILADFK

Row | SMILES | MED=>50 (Mus musculus [1]) | MED=>50 [2] | MED=>50 (Mus musculus [3]) | MED=>50 (Mus musculus [4]) | MED=>50 (Mus musculus [5]) | MED=>50 [6] | Activity [7] | fold change (FC) (Mus musculus [8]) | Activity [9] | Activity [10] | IC50 [11] [µM] | Activity [12] | Activity [13] | Activity [14]
1 | O=C1NC(=O)C(c2ccccc2)(c2ccccc2)N1 [PHENYTOIN] | inactive | 100 mg/kg | 30 mg/kg | inactive | 30 mg/kg | 100 mg/kg |  |  |  |  |  |  |  | 
2 | Cc1ccccc1C1C(Cl)C(=O)N1NC(=O)Nc1nc2ccc(Cl)cc2s1 (stereo not drawn) | inactive | 300 mg/kg | 300 mg/kg | inactive | 300 mg/kg | 300 mg/kg |  |  |  |  |  |  |  | 
3 | COc1ccc(C2SCC(=O)N2NC(=O)Nc2nc3ccc(Cl)cc3s2)cc1 (stereo not drawn) | inactive | Non-Toxic | inactive | inactive | 300 mg/kg | Non-Toxic |  |  |  |  |  |  |  | 
4 | O=C(Nc1nc2ccc(Cl)cc2s1)NN1C(=O)CSC1c1ccccc1Cl (stereo not drawn) | 300 mg/kg | Non-Toxic | 100 mg/kg | 300 mg/kg | 100 mg/kg | Non-Toxic |  |  |  |  |  |  |  | 
5 | O=C(Nc1nc2ccc(Cl)cc2s1)NN1C(=O)CSC1c1ccc(Cl)cc1Cl (stereo not drawn) | 100 mg/kg | Non-Toxic | 100 mg/kg | 100 mg/kg | 30 mg/kg | Non-Toxic | Toxic | 1.5 | Toxic | Toxic | 15.3 | Non-Toxic |  | 
6 | O=C(Nc1nc2ccc(Cl)cc2s1)NN1C(=O)C(Cl)C1c1ccccc1Cl (stereo not drawn) | inactive | Non-Toxic | 300 mg/kg | inactive | 300 mg/kg | Non-Toxic |  |  |  |  |  |  |  | 
7 | O=C(Nc1nc2ccc(Cl)cc2s1)NN1C(=O)C(Cl)C1c1ccc(Cl)cc1Cl (stereo not drawn) | 100 mg/kg | Non-Toxic | 100 mg/kg | 100 mg/kg | 30 mg/kg | Non-Toxic |  |  | Toxic |  | 51.4 |  | Toxic | Toxic
8 | COc1ccc(C2C(Cl)C(=O)N2NC(=O)Nc2nc3ccc(Cl)cc3s2)cc1 (stereo not drawn) | inactive | Non-Toxic | 300 mg/kg | inactive | 300 mg/kg | Non-Toxic |  |  |  |  |  |  |  | 
9 | O=C(Nc1nc2ccc(Cl)cc2s1)NN1C(=O)CSC1c1ccc([N+](=O)[O-])cc1 (stereo not drawn) | 100 mg/kg | Non-Toxic | 100 mg/kg | 100 mg/kg | 30 mg/kg | Non-Toxic |  |  | Toxic |  | 58.1 |  | Toxic | Toxic
10 | Cc1ccccc1C1SCC(=O)N1NC(=O)Nc1nc2ccc(Cl)cc2s1 (stereo not drawn) | inactive | 300 mg/kg | 300 mg/kg | inactive | 300 mg/kg | 300 mg/kg |  |  |  |  |  |  |  | 
11 | CC(=O)Oc1ccccc1C1C(Cl)C(=O)N1NC(=O)Nc1nc2ccc(Cl)cc2s1 (stereo not drawn) | inactive | Non-Toxic | 300 mg/kg | inactive | 300 mg/kg | Non-Toxic |  |  |  |  |  |  |  | 
12 | O=C(Nc1nc2ccc(Cl)cc2s1)NN1C(=O)C(Cl)C1c1ccc([N+](=O)[O-])cc1 (stereo not drawn) | 300 mg/kg | Non-Toxic | 100 mg/kg | 300 mg/kg | 100 mg/kg | Non-Toxic |  |  |  |  |  |  |  | 
13 | CC(=O)Oc1ccccc1C1SCC(=O)N1NC(=O)Nc1nc2ccc(Cl)cc2s1 (stereo not drawn) | inactive | Non-Toxic | 300 mg/kg | inactive | 300 mg/kg | Non-Toxic |  |  |  |  |  |  |  | 
14 | C=CC(N)CCC(=O)O (stereo not drawn) [VIGABATRIN] |  |  |  |  |  |  |  |  |  |  | 39.7 |  |  | 
15 | O=C(Nc1nc2ccc(Cl)cc2s1)NN1C(=O)CSC1c1ccccc1 (stereo not drawn) | 300 mg/kg | Non-Toxic | 300 mg/kg | 300 mg/kg | 300 mg/kg | Non-Toxic |  |  |  |  |  |  |  | 
16 | CCC1(C)CC(=O)NC1=O (stereo not drawn) [ETHOSUXIMIDE] | 300 mg/kg | Non-Toxic | inactive | inactive | inactive | Non-Toxic |  |  |  |  |  |  |  | 
17 | O=C(Nc1nc2ccc(Cl)cc2s1)NN1C(=O)C(Cl)C1c1ccccc1 (stereo not drawn) | inactive | Non-Toxic | 300 mg/kg | inactive | 300 mg/kg | Non-Toxic |  |  |  |  |  |  |  | 
18 | NC(=O)N1c2ccccc2C=Cc2ccccc21 [CARBAMAZEPINE] | 100 mg/kg | 100 mg/kg | 100 mg/kg | 100 mg/kg | 30 mg/kg | 300 mg/kg |  |  |  |  |  |  |  | 
19 | CCCC(CCC)C(=O)O [VALPROIC ACID] | 300 mg/kg | Non-Toxic | inactive | inactive | inactive | Non-Toxic |  |  |  |  |  |  |  | 

Reference: ChEMBL document CHEMBL4340556, “Novel benzothiazole hydrazine carboxamide hybrid scaffolds as potential in vitro GABA AT enzyme inhibitors: Synthesis, molecular docking and antiepileptic evaluation” (Bioorg Med Chem Lett, 2019)
